Consider 1 molecule from patent US7807714B2, “Fungicidal compositions” (Syngenta Crop Protection, Inc., priority 2006, dated 2010).

Molecules are shown by their SMILES. “And” between values parts separate entries of the source, which are not always exact repeats. Identical values can stand only once. Like-named read-outs stand apart in the source and are kept apart here.

Type in all cases: cell-based
One assay has as its system Pythium Ultimum. Kind of assay: Activity against Pythium Ultimum (growth inhibition in PDB, microtiter plate, photometric). The settings on record: 48 hrs.
Another assay has as its system Pyrenophora Graminea. Put plainly: Activity against Pyrenophora Graminea (growth inhibition in PDB, microtiter plate, photometric). The settings on record: 72 hrs.
Another assay concerns Rhizoctonia Solani. Kind of assay: Activity against Rhizoctonia Solani (growth inhibition in PDB, microtiter plate, photometric). The settings on record: 48 hrs.
The test system of a further assay is Fusarium Graminearum. The settings on record: 48 hrs.
Another assay concerns Gäumannomyces Graminis. Kind of assay: Activity Against Gäumannomyces Graminis (growth inhibition in PDB, microtiter plate, photometric). The settings on record: 72 hrs.
[1] abbreviates: 0.0039 ppm (mg active ingredient/liter final medium).
[2] abbreviates: 0.0078 ppm (mg active ingredient/liter final medium).
Where [3] appears, read: 0.03125 ppm (mg active ingredient/liter final medium).
Where [4] appears, read: 0.0625 ppm (mg active ingredient/liter final medium).
Setting [5] is: 0.125 ppm (mg active ingredient/liter final medium).
The mark [6] stands for this setting: 1.0 ppm (mg active ingredient/liter final medium).
The mark [7] stands for this setting: 0.25 ppm (mg active ingredient/liter final medium).
The mark [8] stands for this setting: 0.5 ppm (mg active ingredient/liter final medium).

With `Cn1cc(C(=O)Nc2ccccc2C2CC2C2CC2)c(C(F)F)n1` (racemic) [Cpd A], the “Observed control in % (% Cobs)” value with Pythium Ultimum (setting [1]) is 0%; in the assay with Pythium Ultimum (setting [2]), 0%; with Pythium Ultimum (setting [3]) it was 0%; with Pyrenophora Graminea (0.002 ppm (mg active ingredient/liter final medium)), 0%; in the assay on Pyrenophora Graminea (setting [1]) it was 1.3% and 3.3%; in the assay on Pyrenophora Graminea (setting [2]), 0%. Further, the “Observed control in % (% Cobs)” value in the assay with Pyrenophora Graminea (0.0156 ppm (mg active ingredient/liter final medium)) is 0%; with Pyrenophora Graminea (setting [3]), 0% and 5.8%; with Pyrenophora Graminea (setting [4]), 4.0%; in the assay on Pyrenophora Graminea (setting [5]) it was 0%; with Pyrenophora Graminea (setting [6]), 0%; with Rhizoctonia Solani (setting [4]), 0%. In addition, the “Observed control in % (% Cobs)” value was 22.8% and 23.0% and 29.3% and 40.2% in the assay on Rhizoctonia Solani (setting [5]); 73.2% in the assay on Rhizoctonia Solani (setting [7]); 0% in the assay with Fusarium Graminearum (setting [3]); 2.0% and 4.2% in the assay with Fusarium Graminearum (setting [4]); 3.5% in the assay with Fusarium Graminearum (setting [5]); 10.5% and 4.0% in the assay on Fusarium Graminearum (setting [7]). Moreover, the “Observed control in % (% Cobs)” value with Fusarium Graminearum (setting [8]) was 9.3%; with Fusarium Graminearum (setting [6]), 6.6% and 5.8%; in the assay on Gäumannomyces Graminis (setting [5]) it was 0%; with Gäumannomyces Graminis (setting [8]) it was 0%; with Gäumannomyces Graminis (setting [6]) it was 19.4%.
